Measurements taken from PMC11311998, “AR71, Histamine H3 Receptor Ligand—In Vitro and In Vivo Evaluation (Anti-Inflammatory Activity, Metabolic Stability, Toxicity, and Analgesic Action)” (International Journal of Molecular Sciences, 2024).

Key:
[1] = test system: rat models of neuropathic pain; parameters: method as in PMID 18164820; settings: surgically or virus-induced; cited from earlier work
SH-SY5Y cells [2] = type: cell-based, human; settings: rotenone alone 6.25 μM, 24 h
Procedure: To test neuroprotective activity, SH-SY5Y cells were pre-treated for 1 h with various concentrations of AR71, after which rotenone (6.25 μM) was added and the cells were cultured for another 24 h. […] Co-treatment with AR71 protected cells from the toxic effect of rotenone, resulting in LDH leakage ranging from 10 to 22% only.
The protective effect of AR71 against rotenone-induced toxicity in SH-SY5Y cells was assessed by measuring LDH release. SH-SY5Y cells (6 × 10^3 cells/100 μL/well) were seeded in black 96-well plates Nunclon^TM Delta Surface no. 137101 (ThermoFischer Scientific, Waltham, MA, USA) and cultured overnight. The next day, the medium was removed and replaced with a fresh one with an increasing concentration of AR71 (0.0975–50 μM). After 1 h of compound pre-treatment, the neurotoxin rotenone (6.25 μM) was added, and the cells were cultured for another 24 h. For the negative and positive controls, cells were treated with 0.1% DMSO and 6.25 μM of rotenone alone, respectively. The cells treated with the compound alone were used to compare the effect with those co-treated with rotenone. After 24 h, the level of LDH leakage was measured by the CytoTox-ONE™ Homogeneous Membrane Integrity Assay (Promega, Madison, WI, USA) following the manufacturer’s protocol. Briefly, 100 μL of CytoTox-ONE™ reagent (Promega, Madison, WI, USA) was added to each well, and the cells were incubated for 10 min at room temperature protected from light. The fluorescence was measured using the multimode plate reader Tecan Spark (Tecan, Männedorf, Switzerland) with an excitation wavelength of 560 nm and an emission wavelength of 590 nm.

SH-SY5Y cells [3] = experiment: mitochondrial membrane potential (JC-10); type: cell-based, human; settings: 50 μM, 3 h
Procedure: Neurotoxin-like rotenone induces oxidative stress inside cells that might influence mitochondrial membrane potential (MMP). Maintaining unaffected MMP is essential for neuroprotection. In our study, we tested the effect of AR71 on MMP in the presence and absence of rotenone.
Next, the effect of AR71 (0.78 μM) when co-treated with rotenone was tested; 1 μM carbonyl cyanide m-chlorophenylhydrazone (CCCP) was used as a positive control.
The MMP was measured by a commercially available kit (Sigma Aldrich, MAK159, for live cells) that utilises a cationic, lipophilic dye JC-10. It allows for ratiometric analysis of mitochondrial membrane potential, where a shift from orange (λEX/λEM: 540 nm/590 nm) to green fluorescence (λEX/λEM: 490 nm/525 nm) is indicative of compromised mitochondria. For this assay, the SH-SY5Y cells (1 × 10^4 cells/well) were seeded in a black-sided clear bottom 96-well plate (Thermo Scientific Nunclon^TM Delta Surface no. 137101, Denmark) in a complete culture medium. First, to choose the optimal concentration of rotenone in this assay, a dose–response effect of rotenone (0.05, 0.5, 5, 50 μM) was studied. Next, the cells were pre-treated with AR71 (0.78 μM) for 1 h before rotenone stimulation (50 μM) for another 3 h. […] The positive control was carbonyl cyanide m-chlorophenylhydrazone (CCCP; 1 μM)—uncoupling agent on the proton gradient. After incubation, 50 μL/well of the JC-10 dye loading solution was added to each well with cells. The plate was incubated for 45 min in the incubator. Then, 50 μL/well of Assay Buffer B was added to each well, and the fluorescence was monitored immediately. The red/green fluorescence intensity ratio was used to calculate the results.

SMILES	efficacy in rat models of neuropathic pain [1]	LDH leakage vs control cells (SH-SY5Y cells [2])	reduction of MMP compared with control cells (SH-SY5Y cells [3])
CNC(=O)c1ccc(Oc2ccc3c(c2)CCN(C2CCC2)CC3)nc1 [GSK189254]	effective	–	–
CC(C)N1CCCN(C(=O)C2CCN(c3ccc(C(F)(F)F)nc3)CC2)CC1 [GSK334429]	effective	–	–
C=C(C)[C@H]1Cc2c(ccc3c2O[C@@H]2COc4cc(OC)c(OC)cc4[C@@H]2C3=O)O1 [rotenone, reference compound]	–	twice as much LDH leakage as control cells	67%
